Results reported in ChEMBL document CHEMBL1201862, “PubChem BioAssay data set” (2004).
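Growth conditions: 96-well plates. Treatment: test compound, 48 hours, 5 concentrations. Analysis: linear interpolation between bracketing concentrations; unreached endpoints set to highest concentration. Here, GI50 denotes the concentration required for 50% inhibition of growth.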 Activity calls are given as the source filed them. Cut-off read from the data, not from the text of the source: active = GI50 up to about 1.1 µM and inactive = higher.

Legend:
Assay in all cases: NCI-60 cell line screen, 48 h
SN12C = system: SN12C
Malme-3M = system: Malme-3M
SK-MEL-5 = system: SK-MEL-5
CAKI-1 = system: CAKI-1
NCI/ADR-RES = system: NCI/ADR-RES
EKVX = system: EKVX
RXF 393 = system: RXF 393
U-251 = system: U-251
LOX IMVI = system: LOX IMVI
SK-MEL-2 = system: SK-MEL-2
CCRF-CEM = system: CCRF-CEM
MOLT-4 = system: MOLT-4
HOP-62 = system: HOP-62
MDA-N = system: MDA-N
OVCAR-8 = system: OVCAR-8
MDA-MB-231 = system: MDA-MB-231
SNB-75 = system: SNB-75
SR = system: SR
T47D = system: T47D
BT-549 = system: BT-549

Row | SMILES | GI50 (SN12C) | GI50 (Malme-3M) | GI50 (SK-MEL-5) | GI50 (CAKI-1) | GI50 (NCI/ADR-RES) | GI50 (EKVX) | GI50 (RXF 393) | GI50 (U-251) | GI50 (LOX IMVI) | GI50 (SK-MEL-2) | GI50 (CCRF-CEM) | GI50 (MOLT-4) | GI50 (HOP-62) | GI50 (MDA-N) | GI50 (OVCAR-8) | GI50 (MDA-MB-231) | GI50 (SNB-75) | GI50 (SR) | GI50 (T47D) | GI50 (BT-549)
1 | CCCCC(=O)OC[n+]1ccc2c(C)c3[nH]c4ccc(OC)cc4c3c(C)c2c1 | 0.146 µM (active) | 1.16 µM (inactive) | 1.22 µM (inactive) | 1.02 µM (active) | 0.234 µM (active) | 1.14 µM (inactive) | 0.929 µM (active) | 0.348 µM (active) | 0.271 µM (active) | 2.32 µM (inactive) | 0.0684 µM (active) | 0.0396 µM (active) | 0.47 µM (active) | 0.321 µM (active) | 0.171 µM (active) | 0.185 µM (active) | 1.07 µM (active) | 0.0506 µM (active) | 1.03 µM (active) | 
2 | CC(C)(C)C(O)CC(O)(C(F)(F)F)C(F)(F)F (stereo unspecified) | > 100 µM (inactive) | > 100 µM (inactive) | > 100 µM (inactive) | > 100 µM (inactive) | > 100 µM (inactive) | > 100 µM (inactive) | > 100 µM (inactive) | > 100 µM (inactive) | > 100 µM (inactive) | > 100 µM (inactive) | > 100 µM (inactive) | > 100 µM (inactive) | > 100 µM (inactive) | > 100 µM (inactive) | > 100 µM (inactive) | > 100 µM (inactive) | 56.9 µM (inactive) | > 100 µM (inactive) | > 100 µM (inactive) | 
3 | Cc1c2c(n(C)c1C)C(=O)C1C(C2=O)C2(C)c3ccccc3C1(C)c1ccccc12 (stereo unspecified) |  | > 100 µM (inactive) | > 100 µM (inactive) |  | > 100 µM (inactive) | > 100 µM (inactive) | > 100 µM (inactive) | > 10 µM (inactive) | > 100 µM (inactive) | > 100 µM (inactive) | > 100 µM (inactive) | > 100 µM (inactive) | > 100 µM (inactive) |  | > 100 µM (inactive) |  | > 100 µM (inactive) | 24.4 µM (inactive) | > 100 µM (inactive) | > 100 µM (inactive)
4 | NC1CC2NC3CCCCC3NC2CC1N (stereo unspecified) | 35 µM (inactive) | 46.6 µM (inactive) | 27.7 µM (inactive) | 35 µM (inactive) | 30.1 µM (inactive) | 25.4 µM (inactive) | 23.7 µM (inactive) | 28 µM (inactive) | 31.6 µM (inactive) | 50.1 µM (inactive) | 22.5 µM (inactive) | 24.9 µM (inactive) |  | 43.8 µM (inactive) | 27.4 µM (inactive) | 61.7 µM (inactive) | 25.1 µM (inactive) | 29.2 µM (inactive) |  | > 100 µM (inactive)
5 | N#Cc1c(N)c2c(c(-c3ccccc3)c1-c1ccccc1)C(=O)N(NC(=S)Nc1ccccc1)C2=O | > 100 µM (inactive) | > 100 µM (inactive) | 43.1 µM (inactive) | > 100 µM (inactive) | 59.3 µM (inactive) | > 100 µM (inactive) | 16.9 µM (inactive) | > 100 µM (inactive) | 90.2 µM (inactive) | > 100 µM (inactive) | 51.8 µM (inactive) | 46.8 µM (inactive) |  |  | 88.7 µM (inactive) | > 100 µM (inactive) | 65.2 µM (inactive) | 68.7 µM (inactive) | 48.2 µM (inactive) | 89.5 µM (inactive)
6 | O=C1C[C@@H](c2ccc(O)cc2)[C@@]2(O1)C(=O)O[C@H]([C@@H](O)CO)[C@@H]2O | > 100 µM (inactive) | > 100 µM (inactive) | > 100 µM (inactive) | > 100 µM (inactive) | > 100 µM (inactive) | > 100 µM (inactive) |  | > 100 µM (inactive) | > 100 µM (inactive) | > 100 µM (inactive) | > 100 µM (inactive) | > 100 µM (inactive) |  |  | > 100 µM (inactive) | > 100 µM (inactive) | > 100 µM (inactive) |  | > 100 µM (inactive) | > 100 µM (inactive)
7 | Brc1ccc2[nH]cc([C@@H]3CN[C@@H](c4c[nH]c5ccc(Br)cc45)CN3)c2c1 | 6.04 µM (inactive) | 14.8 µM (inactive) | 7.93 µM (inactive) | 8.93 µM (inactive) | 7.66 µM (inactive) | 5.57 µM (inactive) | 5.48 µM (inactive) | 4.39 µM (inactive) | 1.66 µM (inactive) | 8.95 µM (inactive) | 2.16 µM (inactive) | 1.98 µM (inactive) | 8.18 µM (inactive) |  | 3.63 µM (inactive) | 3.79 µM (inactive) | 2.78 µM (inactive) | 1.86 µM (inactive) | 8.13 µM (inactive) | 14.8 µM (inactive)
8 | N#Cc1nc(-c2ccccn2)oc1N | > 100 µM (inactive) | > 100 µM (inactive) | > 100 µM (inactive) | > 100 µM (inactive) |  | > 100 µM (inactive) | > 100 µM (inactive) | > 100 µM (inactive) | > 100 µM (inactive) | > 100 µM (inactive) | > 100 µM (inactive) | > 100 µM (inactive) | > 100 µM (inactive) | > 100 µM (inactive) |  | > 100 µM (inactive) |  | > 100 µM (inactive) |  | > 100 µM (inactive)
9 | O=S1(=O)OCCOS(=O)(=O)C1Cc1cccc2ccccc12 | 20.6 µM (inactive) | 16.1 µM (inactive) | 14.4 µM (inactive) | 32.6 µM (inactive) | 20.3 µM (inactive) | 30.3 µM (inactive) | 3.37 µM (inactive) | 18.2 µM (inactive) | 20.5 µM (inactive) | 51.3 µM (inactive) | 14.2 µM (inactive) | 23.7 µM (inactive) | 23.9 µM (inactive) | 21.2 µM (inactive) | 17.7 µM (inactive) | 23 µM (inactive) | 29.6 µM (inactive) | 25.2 µM (inactive) | 39.4 µM (inactive) | 
10 | CC(=O)c1ccc2c(c1)oc(=O)n2CCN1CCCCC1 | > 100 µM (inactive) | 2.79 µM (inactive) | > 100 µM (inactive) | > 100 µM (inactive) | > 100 µM (inactive) | > 100 µM (inactive) | > 100 µM (inactive) | > 100 µM (inactive) | > 100 µM (inactive) | > 100 µM (inactive) | 26.3 µM (inactive) | > 100 µM (inactive) | > 100 µM (inactive) | > 100 µM (inactive) | > 100 µM (inactive) | > 100 µM (inactive) |  | > 100 µM (inactive) |  | > 100 µM (inactive)
11 | CSCCCNC(=O)c1csc(-c2csc(CCNC(=O)CNC(=O)CNC(=O)CNC(=O)OC(C)(C)C)n2)n1 | > 100 µM (inactive) | > 100 µM (inactive) | > 100 µM (inactive) | > 100 µM (inactive) | > 100 µM (inactive) | > 100 µM (inactive) | > 100 µM (inactive) | > 100 µM (inactive) | > 100 µM (inactive) | > 100 µM (inactive) | > 100 µM (inactive) | > 100 µM (inactive) | > 100 µM (inactive) | > 100 µM (inactive) | > 100 µM (inactive) | > 100 µM (inactive) | > 100 µM (inactive) |  |  | > 100 µM (inactive)
